# Test results published in a melting point compilation (Tetko et al.; mined from patent text by program, amines drawn as free bases though some values may be those of a salt).
row,melting point [°C],SMILES
1,173 to 174,CCCn1nc2c(N)nc3ccccc3c2c1CCCc1cc[nH]c1
2,247 to 249,COC(=O)c1cc(NC(=O)c2ccccc2)c2cc(Cc3ccc(F)cc3)cnc2c1O
3,207 to 208,O=C(O)c1cccc(-c2ccc3c(c2)N(Cc2cc(Cl)cc(Cl)c2)CC3)c1
4,177 to 178,CCCCc1nc2ccccc2n1CCC(=O)O
5,283 to 285,Cc1cc(C#N)cc(C(=O)c2c(C(C)C)c(=O)[nH]c(=O)n2CC2(CC(N)=O)CC2)c1
6,191 to 201,CC(C)N1C(=O)C2CC(c3ccc(N)cc3)(C2)C1=O
7,118 to 122,COc1ccc2c(c1)CCC(N(CC(=O)O)C(=O)C(C)CSC(C)=O)C2 (stereo unspecified)
8,178 to 180,CCOC(=O)c1cn(-c2nc(NC(C)(C)CC(C)(C)C)ccc2F)c2c(Cl)c(F)c(F)cc2c1=O
9,> 250,CN1C(=O)N(c2ccc(Cl)cc2)S(=O)(=O)c2ccc(O)cc21
10,142 to 143,FC(F)(F)c1cc(Nc2ccc3[nH]ccc3c2)nc(-c2cccnc2)n1
11,186 to 187,Cc1c(Cc2ccc(C(C)C)cc2)c2c(c(C)c1NC(=O)CC(C)(C)C)CC(C)(CO)O2 (stereo unspecified)
12,219 to 220,CCCP(=O)(CCC)Cc1ccc(NC(=O)C2=Cc3cc(-c4ccc(C)cc4)ccc3OCC2)cc1
13,134 to 136,Cn1c(COc2ccc(CC3SC(=O)N(C(c4ccccc4)(c4ccccc4)c4ccccc4)C3=O)cc2)cc2ccccc21 (stereo unspecified)
14,88,CCCCc1nc(C(=O)OC)c(C(=O)OC)[nH]1
15,195 to 205,CC(C)N(C(=O)C(C)C(C#N)(c1ccccc1)c1ccccc1)C(C)C (stereo unspecified)
16,91 to 92,Cc1c(C)c2c(c(C)c1N)CC(C)(CN1CCC(CCc3ccccc3)CC1)O2 (stereo unspecified)
17,113 to 114,CCOC(=O)c1cnn(-c2cc(C)cc(C)c2)c1N
18,92,CS(=O)c1cc(-c2ccc(Oc3ccccc3)cc2)nn1C(N)=O (stereo unspecified)
19,72 to 75,O=C(c1ccccc1)c1ccc(S)cc1
20,178,O=C(C=Cc1cccc(NC(=O)C=Cc2ccccc2)c1)NO
21,228 to 229,O=C1N(C(c2ccccc2)c2ccccc2)c2ccc(F)cc2C12COc1cc3c(cc12)CCO3 (stereo unspecified)
22,107,COc1nc(C)c2c(c1C=O)CCCC2O (stereo unspecified)
23,107 to 109,Cc1cn(C(C)(C)C(=O)N(C)C)nc1-c1ccccc1

row,melting point [°C],SMILES
1,120 to 121,C#CCNC(=O)c1c(Br)cccc1[Si](C)(C)C
2,194 to 197,CC(COc1cccc2ccccc12)Nc1ccc(C(=O)O)cc1 (stereo unspecified)
3,186 to 190,O=c1c2cc(O)ccc2oc2c(CO)ccc(NCCN3CCCC3)c12
4,148 to 149,COC[C@]12CCC(=O)C=C1CC[C@@H]1[C@@H]2CC[C@]2(C)[C@@H](C(=O)CO)CC[C@@H]12
5,150 to 161,O=C1CCCc2nc3ccccc3c(NCc3ccccc3Cl)c21
6,175 to 176,O=c1c(-c2ccccc2)c(-c2ccccc2)sn1-c1ccccc1
7,296 to 297,O=C1c2cc(I)ccc2-n2c1nc1ccccc1c2=O
8,148 to 152,O=C(CCCOc1cc(-c2ccccc2)ccc1O)NO
9,233 to 235,O=c1cc2c(nn1-c1ccc(Cl)cc1)-c1cc(F)ccc1S(=O)CC2 (stereo unspecified)
10,138 to 140,O=C(O)[C@@H]1CCCN1C(=O)C(CS)CS
11,209 to 212,O=C1c2ccc(Cl)cc2C(=O)N1c1ccc([N+](=O)[O-])cc1Cl
12,195 to 196,Cc1oc(-c2ccccc2)nc1CCOc1ccc(C=C2SC(=O)NC2=O)cn1
13,149 to 151,CCOc1ccc(CC(NC(C)=O)C(=O)O)cc1OCC (stereo unspecified)
14,221 to 222,CS(=O)(=O)Nc1ccccc1C(=O)Nc1ccc(OCCN2CCCC2)cc1
15,147 to 148,N#CC(=NO)c1cccc(C(=O)c2ccccc2)c1
16,114 to 115,Cc1ccc(OP(Oc2ccc(C)cc2C(C)(C)C)Oc2ccc(C)cc2C(C)(C)C)c(C(C)(C)C)c1
17,171 to 175,CC1=NC(NC(=O)Nc2cccc(C)c2)C(=O)N(CC(=O)C2CCCCCC2)c2c(C)cccc21 (stereo unspecified)
18,95 to 97,c1ccc(-c2nnc(-c3ccc(CN4CCCCCC4)s3)o2)cc1
19,138 to 140,COc1ccc(N(CCCC(=O)O)C(=O)CCN(C(=O)c2ccc(Cl)cc2)c2c(C)cccc2C)cc1
20,205 to 206,COc1cc2ncnc(Nc3cc(Cl)cc(N=[N+]=[N-])c3)c2cc1OC
21,119 to 120,COc1cc(OC)nc(Oc2ccnc3cc(Cl)ccc23)n1
22,140 to 142,CCS(=O)(=O)N[C@H](C(=O)NCCc1ccc(OCc2ccccc2)c(OC)c1)C(C)C
23,188 to 191,c1cnc2ccc(Cn3nnc4ccc(-c5cnn(C6CCNCC6)c5)nc43)cc2c1

row,melting point [°C],SMILES
1,112 to 115,NS(=O)(=O)c1ccc(S(=O)(=O)CCCc2ccc(O)cc2)s1
2,> 250,Cc1c(C=O)c2cc(Br)ccc2n1-c1ccc(O)cc1
3,216 to 217,O=C(O)c1cc2c3c(ccc2[nH]1)OC[C@H](CO)O3
4,136 to 139,COc1ccc(N2CCN(c3c(C)c(C)c4c(c3C)C(c3ccc(C)cc3)C(C)(C)O4)CC2)cc1OC (stereo unspecified)
5,109,O=[N+]([O-])c1c(Br)nn(Cc2ccc(Cl)cc2)c1Br
6,70 to 72,COC(=O)c1cc([N+](=O)[O-])ccc1OC(C)=O
7,133 to 134,Cc1oc(-c2ccccc2)nc1CCOc1ccc(CC(C)(C)C(=O)O)cc1
8,188 to 190,O=C(O)Cc1ccc2c(c1)C(=O)c1ccc(Cl)cc1CO2
9,110 to 112,O=Cc1ccc(OCCN2CCN(c3cc(Cl)nnc3Cl)CC2)cc1
10,80 to 81,FC(F)(F)Oc1ccc(-c2ncc(CBr)cn2)cc1
11,84 to 86,N#Cc1ccccc1C(F)(F)C(F)(F)c1ccccc1
12,167 to 168,CC(C)[C@@H]1COC(=O)N1C(=O)[C@@H](CC(=O)OC(C)(C)C)Cc1ccccc1
13,80 to 83,CC(C)(C)C(O)C(=O)CCn1cncn1 (stereo unspecified)
14,94 to 95,CC(C)(C)OC(=O)n1cc2c(c1C=O)OCCO2
15,170 to 172,c1ccc(C2CC(n3ccnc3)c3ccccc3N2)cc1 (stereo unspecified)
16,220 to 222,COc1ccc(CCNc2nc3nc(-c4ccco4)nc-3c(N)[nH]2)cc1
17,78 to 80,CC1(C)CC(N(CCO)S(C)(=O)=O)c2cc(OCc3ccccc3)ccc2O1 (stereo unspecified)
18,274 to 279,CC1(CN)CN(c2cc3c(cc2F)c(=O)c(C(=O)O)cn3C2CC2)C1
19,295,O=C(O)c1ccc2c(=O)nc(-c3ccccn3)sc2c1
20,178 to 182,COc1ccc(Cn2nnnc2C2N3C(=O)C(NC(c4ccccc4)(c4ccccc4)c4ccccc4)C3SC2(C)C)cc1 (stereo unspecified)
21,140 to 141,CCCS(=O)c1ccc(-c2coc3ccc(-c4nnc(C)o4)cc23)cc1 (stereo unspecified)

row,SMILES,melting point [°C]
1,CN1C(=O)C(C)(C)N=C(c2ccccc2Cl)c2c1ccc(N)c2Br,188 to 189
2,CN(C)Cc1ccc(CSCCNC(=N)N[N+](=O)[O-])s1,118
3,COc1cccc2sc(C3CCNC(C)C3)cc12 (stereo unspecified),70 to 73
4,CCC(=O)c1c(CC)n(Cc2ccccc2Cl)c2cc(C#N)ccc12,115 to 118
